Experiment [1] deals with MOLT-4 cells. The experiment is described as follows: Cell viability assay, MTS, 48 h, MOLT-4. The experiment is classed as cell-based. The note with it: Homo sapiens, MOLT-4, 48 h, 48 hours, read-out: IC50 (48 hours) MOLT-4. The procedure: (§1) Acute lymphoblastic leukemia cells (MOLT-4 and RS4; 11) or small cell lung cancer (NCI-H146 or simply H146) were incubated with increasing concentrations of Bcl-xL degraders for 48 h. Cell viability was measured by tetrazolium-based MTS assay.

Experiment [2] concerns RS4;11 cells. Put plainly: Cell viability assay, MTS, 48 h, RS4;11. The experiment is classed as cell-based. Particulars: Homo sapiens, RS4-11, 48 h, 48 hours, read-out: IC50 (48 hours) RS4;11. The procedure:
as §1

These results are taken from patent US20220169628A1 (University of Florida Research Foundation, Incorporated, priority 2019, published 2022).

Turning to `Cc1ncsc1-c1ccc([C@H](C)NC(=O)[C@@H]2C[C@@H](O)CN2C(=O)[C@@H](NC(=O)CCCCCCCCC(=O)N2CCC(c3ccc(Cl)cc3)=C(CN3CCN(c4ccc(C(=O)NS(=O)(=O)c5ccc(N[C@H](CCN6CCOCC6)CSc6ccccc6)c(S(=O)(=O)C(F)(F)F)c5)cc4)CC3)C2)C(C)(C)C)cc1` [compound 83, (2S,4R)-1-((S)-2-(10-(4-(4-chlorophenyl)-5-((4-(4-(((4-(((R)-4-morpholino-1-(phenylthio)butan-2-yl)amino)-3-((trifluoromethyl)sulfonyl)phenyl)sulfonyl)carbamoyl)phenyl)piperazin-1-yl)methyl)-3,6-dihydropyridin-1(2H)-yl)-10-oxodecanamido)-3,3-dimethylbutanoyl)-4-hydroxy-N—((S)-1-(4-(4-methylthiazol-5-yl)phenyl)ethyl)pyrrolidine-2-carboxamide], the IC50 (usually the point on the concentration scale where inhibition reaches its midpoint) in experiment [1] lay within 50 to 150 nM; in experiment [2], 150 to 500 nM.
Turning to `Cc1ncsc1-c1ccc([C@H](C)NC(=O)[C@@H]2C[C@@H](O)CN2C(=O)[C@@H](NC(=O)CCCCCCC(=O)N2CCN(C[C@@]3(C)CCC(c4ccc(Cl)cc4)=C(CN4CCN(c5ccc(C(=O)NS(=O)(=O)c6ccc(N[C@H](CCN7CCOCC7)CSc7ccccc7)c(S(=O)(=O)C(F)(F)F)c6)cc5)CC4)C3)CC2)C(C)(C)C)cc1` [degrader #43, (2S,4R)-1-((S)-2-(8-(4-(((S)-4′-chloro-4-methyl-6-((4-(4-(((4-(((R)-4-morpholino-1-(phenylthio)butan-2-yl)amino)-3-((trifluoromethyl)sulfonyl)phenyl)sulfonyl)carbamoyl)phenyl)piperazin-1-yl)methyl)-2,3,4,5-tetrahydro-[1,1′-biphenyl]-4-yl)methyl)piperazin-1-yl)-8-oxooctanamido)-3,3-dimethylbutanoyl)-4-hydroxy-N—((S)-1-(4-(4-methylthiazol-5-yl)phenyl)ethyl)pyrrolidine-2-carboxamide], the IC50 lay within 50 to 150 nM in experiment [1] and 150 to 500 nM in experiment [2].
As for `Cc1ncsc1-c1ccc([C@H](C)NC(=O)[C@@H]2C[C@@H](O)CN2C(=O)[C@@H](NC(=O)CCCCC(=O)N2CC3(CCN(CC4(C)CCC(c5ccc(Cl)cc5)=C(CN5CCN(c6ccc(C(=O)NS(=O)(=O)c7ccc(N[C@H](CCN8CCOCC8)CSc8ccccc8)c(S(=O)(=O)C(F)(F)F)c7)cc6)CC5)C4)CC3)C2)C(C)(C)C)cc1` (stereo partly drawn) [degrader #30, (2S,4R)-1-((2S)-2-(6-(7-((4′-chloro-4-methyl-6-((4-(4-(((4-(((R)-4-morpholino-1-(phenylthio)butan-2-yl)amino)-3-((trifluoromethyl)sulfonyl)phenyl)sulfonyl)carbamoyl)phenyl)piperazin-1-yl)methyl)-2,3,4,5-tetrahydro-[1,1′-biphenyl]-4-yl)methyl)-2,7-diazaspiro[3.5]nonan-2-yl)-6-oxohexanamido)-3,3-dimethylbutanoyl)-4-hydroxy-N—((S)-1-(4-(4-methylthiazol-5-yl)phenyl)ethyl)pyrrolidine-2-carboxamide], the IC50 was 50 to 150 nM in experiment [1] and less than 50 nM in experiment [2].
Consider `Cc1ncsc1-c1ccc([C@H](C)NC(=O)[C@@H]2C[C@@H](O)CN2C(=O)[C@@H](NC(=O)CCCCCCC(=O)N2CCN(C[C@]3(C)CCC(c4ccc(Cl)cc4)=C(CN4CCN(c5ccc(C(=O)NS(=O)(=O)c6ccc(N[C@H](CCN7CCOCC7)CSc7ccccc7)c(S(=O)(=O)C(F)(F)F)c6)cc5)CC4)C3)CC2)C(C)(C)C)cc1` [degrader #44, (2S,4R)-1-((S)-2-(8-(4-(((R)-4′-chloro-4-methyl-6-((4-(4-(((4-(((R)-4-morpholino-1-(phenylthio)butan-2-yl)amino)-3-((trifluoromethyl)sulfonyl)phenyl)sulfonyl)carbamoyl)phenyl)piperazin-1-yl)methyl)-2,3,4,5-tetrahydro-[1,1′-biphenyl]-4-yl)methyl)piperazin-1-yl)-8-oxooctanamido)-3,3-dimethylbutanoyl)-4-hydroxy-N—((S)-1-(4-(4-methylthiazol-5-yl)phenyl)ethyl)pyrrolidine-2-carboxamide], for which the IC50 in experiment [1] and in experiment [2] was less than 50 nM throughout.
For the compound `Cc1ncsc1-c1ccc([C@H](C)NC(=O)[C@@H]2C[C@@H](O)CN2C(=O)[C@@H](NC(=O)CCCCCCC(=O)N2CC3(CCN(CC4(C)CCC(c5ccc(Cl)cc5)=C(CN5CCN(c6ccc(C(=O)NS(=O)(=O)c7ccc(N[C@H](CCN8CCOCC8)CSc8ccccc8)c(S(=O)(=O)C(F)(F)F)c7)cc6)CC5)C4)CC3)C2)C(C)(C)C)cc1` (stereo partly drawn) [degrader #32, (2S,4R)-1-((2S)-2-(8-(7-((4′-chloro-4-methyl-6-((4-(4-(((4-(((R)-4-morpholino-1-(phenylthio)butan-2-yl)amino)-3-((trifluoromethyl)sulfonyl)phenyl)sulfonyl)carbamoyl)phenyl)piperazin-1-yl)methyl)-2,3,4,5-tetrahydro-[1,1′-biphenyl]-4-yl)methyl)-2,7-diazaspiro[3.5]nonan-2-yl)-8-oxooctanamido)-3,3-dimethylbutanoyl)-4-hydroxy-N—((S)-1-(4-(4-methylthiazol-5-yl)phenyl)ethyl)pyrrolidine-2-carboxamide], the IC50 was 50 to 150 nM in experiment [1] and less than 50 nM in experiment [2].
The like results for `Cc1ncsc1-c1ccc([C@H](C)NC(=O)[C@@H]2C[C@@H](O)CN2C(=O)[C@@H](NC(=O)CCCCC#CC#CC2(C)CCC(c3ccc(Cl)cc3)=C(CN3CCN(c4ccc(C(=O)NS(=O)(=O)c5ccc(N[C@H](CCN6CCOCC6)CSc6ccccc6)c(S(=O)(=O)C(F)(F)F)c5)cc4)CC3)C2)C(C)(C)C)cc1` (stereo partly drawn) [degrader #11, (2S,4R)-1-((2S)-2-(9-(4′-chloro-4-methyl-6-((4-(4-(((4-(((R)-4-morpholino-1-(phenylthio)butan-2-yl)amino)-3-((trifluoromethyl)sulfonyl)phenyl)sulfonyl)carbamoyl)phenyl)piperazin-1-yl)methyl)-2,3,4,5-tetrahydro-[1,1′-biphenyl]-4-yl)nona-6,8-diynamido)-3,3-dimethylbutanoyl)-4-hydroxy-N—((S)-1-(4-(4-methylthiazol-5-yl)phenyl)ethyl)pyrrolidine-2-carboxamide] were, in that order, greater than 500 nM and greater than 500 nM.
In the same order, the values of `Cc1ncsc1-c1ccc([C@H](C)NC(=O)[C@@H]2C[C@@H](O)CN2C(=O)[C@@H](NC(=O)CCCCCC#CC#CC2(C)CCC(c3ccc(Cl)cc3)=C(CN3CCN(c4ccc(C(=O)NS(=O)(=O)c5ccc(N[C@H](CCN6CCOCC6)CSc6ccccc6)c(S(=O)(=O)C(F)(F)F)c5)cc4)CC3)C2)C(C)(C)C)cc1` (stereo partly drawn) [degrader #12, (2S,4R)-1-((2S)-2-(10-(4′-chloro-4-methyl-6-((4-(4-(((4-(((R)-4-morpholino-1-(phenylthio)butan-2-yl)amino)-3-((trifluoromethyl)sulfonyl)phenyl)sulfonyl)carbamoyl)phenyl)piperazin-1-yl)methyl)-2,3,4,5-tetrahydro-[1,1′-biphenyl]-4-yl)deca-7,9-diynamido)-3,3-dimethylbutanoyl)-4-hydroxy-N—((S)-1-(4-(4-methylthiazol-5-yl)phenyl)ethyl)pyrrolidine-2-carboxamide] are greater than 500 nM and greater than 500 nM.
